The values below come from publication PMC3261944, “The in Vitro Estrogenic Activities of Polyfluorinated Iodine Alkanes” (Environmental Health Perspectives, 2011).

The structures appear in SMILES notation.

The subject of assay [1] is EGR3. Nature of the assay: Expression of estrogen-responsive gene EGR3 (quantitative RT-PCR). It counts as cell-based, Human. The following applies: MCF-7 cells, 48 hr, vs 0.1% ethanol; 50 μM PFBI, PFHxI, PFOI, PFBDI, PFOA, PFOC, PFOB, 1-iodohexane, 4:2 FTI, 6:2 FTI; 40 μM PFDI, PFDoI, PFODI, 8:2 FTI, 10:2 FTI; 20 μM PFHxDI; 100 pM E2. As to the method:
(§1) RNA isolation and reverse transcription polymerase chain reaction (RT-PCR). MCF-7BUS cells were seeded in six-well plates at the density of 1.0 × 10^6 cells per well, starved in SF medium for 48 hr, and exposed to test compounds for 48 hr. First, cells were rinsed twice with cold phosphate-buffered saline, and total RNA was isolated using Trizol reagent (Invitrogen Inc., Carlsbad, CA, USA) following the manufacturer’s protocol. The 260 nm and 280 nm absorbance reading of total RNA was performed using a Nanodrop spectrophotometer (Thermo Scientific, Waltham, MA, USA). The concentration of RNA was quantified by the reading at 260 nm.
(§2) We used a two-step quantitative RT-PCR to quantify gene expression. Total RNA was converted to cDNA using M-MLV (Moloney murine leukemia virus) reverse transcriptase (Promega, Madison, WI, USA) with oligo dT(15), following the manufacturer’s instructions. The final cDNA solution was diluted five times with DNase/RNase-free water (Gibco). Quantitative PCR was performed with a Stratagene MX3005 thermal cycler (Stratagene, La Jolla, CA, USA). PCR reaction mixtures (25 μL) contained 12.5 μL GoTaq Green Master Mix (Promega), 2 μL diluted cDNA, and 0.2 μM sense/antisense primers. The thermal cycle was 5 min at 95°C, followed by 45 cycles of 15 sec at 95°C, 30 sec at 55°C, and 30 sec at 72°C. The primer sequences of early growth response protein 3 (EGR3) were derived from [Terasaka et al. (2004)]. We designed the primers of internal gene β-actin and trefoil factor 1 (TFF1; pS2) with Primer Premier 5 software (Premier Biosoft International, Palo Alto, CA, USA). The primer sequences were as follows: for β-actin (NM_001101), 5´-CACTCT[…]TCCTTCC-3´ (forward) and 5´-[…][…]-3´ (reverse); for EGR3 (NM_004430), 5´-CCATGATTC[…]-3´ (forward) and 5´-GTGGATCTGCTTGTCTTTGAATG-3´ (reverse); and for TFF1 (NM_003225), 5´-AGAAGCG […]-3´ (forward) and 5´-[…][…]-3´ (reverse). The quantification of target gene expression was based on a comparative cycle threshold (Ct) value. We normalized the expression level of each target gene to its reference gene β-actin. The fold change of the target genes was analyzed by the 2^−ΔΔCt method ([Livak and Schmittgen 2001]). We used melting curve analysis and agarose gel electrophoresis to verify the correct PCR products.

Assay [2] relates to MCF-7BUS cells. Description: E-screen assay (MCF-7BUS cell proliferation, WST-1). It counts as cell-based, Human. As to conditions: for E-screen Maximum induction (%): percentage of the maximum proliferation effect of tested compound to that of E2, 6 days exposure; for Proliferation / estrogenic effect in the E-screen assay (in words): within the tested concentration ranges. How it is done: (§3) Cell culture. Human MCF-7BUS breast adenocarcinoma cells and MVLN cells were cultured in 100-mm culture dishes in a humidified atmosphere of 5% CO2 at 37°C. Cells were maintained in Dulbecco’s modified Eagle’s medium (DMEM)/F-12 (Hyclone, Logan, UT, USA) containing 10% fetal bovine serum, 100 U/mL streptomycin-penicillin, 2 mM L-glutamine, and 1% insulin-transferrin-selenium supplement (all from Gibco, Grand Island, NY, USA).
E-screen assay. MCF-7BUS cells were kindly provided by A.M. Soto and C. Sonnenschein (Tufts University School of Medicine, Boston, MA, USA). In response to ERα agonists, the mitotic effect leads to the proliferation of MCF-7BUS cells. […] Cells were trypsinized and plated into the interior 60 wells of 96-well plates at the density of 3,000 cells/well. Before each experiment, cells were starved in steroid-free (SF) medium for 48 hr to minimize the basal hormonal activity during assays. SF medium consisted of phenol red–free DMEM/F-12 (Hyclone) supplemented with 5% dextran-charcoal-treated fetal bovine serum (Hyclone), 100 U/mL streptomycin-penicillin, and 2 mM L-glutamine. […] We used a WST-1 proliferation kit (Roche Diagnostics, Mannheim, Germany) to assess proliferation after 6 days of exposure according to the kit instructions. The WST-1 assay is based on the enzymatic cleavage of the tetrazolium salt WST-1 to formazan by cellular mitochondrial dehydrogenases present in viable cells. The absorbance of the WST-1 solution was detected by a microplate reader (Varioskan Flash, Thermo Fisher Scientific, Waltham, MA, USA) at 450 nm, with the reference wave length at 690 nm. The cell proliferation effect was calculated from the solvent control (0.1% ethanol)-corrected absorbance and expressed as the percentage of maximal absorbance of the positive control. Three replicates were used in each experiment.
(§4) The concentration–response analyses were performed with four-parameter logistic curve regression analysis according to the following formula:
(§5) y = minimum + (maximum – minimum) ÷ [1 + (x/EC50)^Hill slope], [1]
(§6) where y is the response value, x is the log concentration of the test compound, and EC50 is the concentration that induces half of the maximum proliferation effect or luciferase activity.
EC50 values were calculated from this nonlinear regression model. EC20 were calculated as […]
A general note: Tetrazolium dyes change colour on reduction, which living cells bring about.

The test system of assay [3] is TFF1 (pS2). Description: Expression of estrogen-responsive gene TFF1 (quantitative RT-PCR). Format: cell-based, Human. The following applies: MCF-7 cells, 48 hr, vs 0.1% ethanol; 50 μM PFBI, PFHxI, PFOI, PFBDI, PFOA, PFOC, PFOB, 1-iodohexane, 4:2 FTI, 6:2 FTI; 40 μM PFDI, PFDoI, PFODI, 8:2 FTI, 10:2 FTI; 20 μM PFHxDI; 100 pM E2. How it is done: as §1, §2
In assay [4] the target is T1, ER (Homo sapiens, UniProt P03372).
T1 construct: This cell line was stably transfected with the luciferase reporter gene and estrogen-responsive element derived from the Xenopus vitellogenin A2 gene; endogenous in cells; host or cells: MVLN cells (provided by J.P. Giesy)
T1 sequence (P03372 1-595): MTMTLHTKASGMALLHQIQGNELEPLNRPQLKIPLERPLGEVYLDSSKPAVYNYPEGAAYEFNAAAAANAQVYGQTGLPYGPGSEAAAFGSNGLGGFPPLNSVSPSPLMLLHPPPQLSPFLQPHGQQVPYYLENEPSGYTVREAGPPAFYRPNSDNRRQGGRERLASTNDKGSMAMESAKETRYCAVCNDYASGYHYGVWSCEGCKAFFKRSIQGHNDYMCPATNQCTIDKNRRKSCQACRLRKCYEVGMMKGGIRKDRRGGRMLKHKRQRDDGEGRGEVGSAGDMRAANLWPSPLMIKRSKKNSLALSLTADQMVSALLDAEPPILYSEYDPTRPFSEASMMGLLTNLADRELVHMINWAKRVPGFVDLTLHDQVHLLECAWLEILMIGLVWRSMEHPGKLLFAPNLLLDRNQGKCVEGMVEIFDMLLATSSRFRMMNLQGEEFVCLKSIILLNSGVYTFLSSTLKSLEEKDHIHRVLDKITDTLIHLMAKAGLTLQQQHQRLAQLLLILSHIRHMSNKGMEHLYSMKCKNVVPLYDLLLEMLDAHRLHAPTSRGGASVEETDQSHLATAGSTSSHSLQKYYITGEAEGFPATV
Description: MVLN assay (estrogen-responsive luciferase reporter transactivation). It counts as cell-based. As to conditions: for MVLN assay Maximum induction (%): percentage of the maximum induction (luciferase) of tested compound to that of E2, 2 days exposure; for Luciferase induction / estrogenic effect in the MVLN assay (in words): within the tested concentration ranges. As to the method: as §3
MVLN assay. The MVLN cell line was kindly provided by J.P. Giesy (Michigan State University, East Lansing, MI, USA). This cell line was stably transfected with the luciferase reporter gene and estrogen-responsive element derived from the Xenopus vitellogenin A2 gene. […] Cells were seeded in the interior 60 wells of a 96-well ViewPlate (Packard Instrument Company, Boston, MA, USA) at a density of 7 × 10^4 cells/well, starved in SF medium for 48 hr, and exposed to test compounds for 2 days. […] Luciferase activity was measured with the LucLite kit (Packard Instruments) according to the manufacturer’s protocol. We measured luminescence by microplate reader (Varioskan Flash) and integrated the luminescence signal for 10 sec. Total protein content was measured by the Bradford assay (Tiangen, Beijing, China) to normalize luminescent units. The results are given as relative luminescent unit per microgram protein. The maximal induction of positive control (corrected for solvent control, 0.1–0.2% ethanol) was set as 100%, and the responses of other chemicals were converted to a percentage of the maximum level. Three replicates were used in each experiment. The cytotoxicity of tested chemicals was examined by WST-1 kit in parallel and routinely observed under microscope to identify the exposure concentration range.
as §4, §5, §6
EC50 values were calculated from this nonlinear regression model. EC20 were calculated as
ECx = [x/(100 – x)]^(1/Hill slope) × EC50, [2]
On the technique in general: Reporter assays use an easily measured gene product as a stand-in for the process of interest.

`FC(F)(F)C(F)(F)C(F)(F)C(F)(F)C(F)(F)C(F)(F)C(F)(F)C(F)(F)C(F)(F)C(F)(F)C(F)(F)C(F)(F)I` [PFDoI, 1-iodoperfluorododecane]: the “EGR3 mRNA expression, fold up-regulation” value in assay [1] is recorded as “did not affect the expression”. Further, in assay [2], the “E-screen Maximum induction (%)” value is “NDd (The maximum relative proliferation effect was < 7%)” and the “Proliferation / estrogenic effect in the E-screen assay (in words)” value (“Proliferation / estrogenic effect” for short) is recorded as “did not show proliferation effects”. Besides, the “TFF1 mRNA expression, fold up-regulation” value in assay [3] is “did not affect the expression”.

`FC(F)(F)C(F)(F)C(F)(F)C(F)(F)C(F)(F)C(F)(F)C(F)(F)C(F)(F)C(F)(F)C(F)(F)I` [PFDI, 1-iodoperfluorodecane]: the “EGR3 mRNA expression, fold up-regulation” value in assay [1] is on record as “did not affect the expression”. Besides, in assay [2], the “E-screen Maximum induction (%)” value was “NDd (The maximum relative proliferation effect was < 7%)” and the “Proliferation / estrogenic effect” value was “did not show proliferation effects”. Moreover, the “TFF1 mRNA expression, fold up-regulation” value in assay [3] was “did not affect the expression”.

With `CCCCCCI` [1-Iodohexane, reference compound], in assay [1], the “EGR3 mRNA expression, fold up-regulation” value is on record as “did not affect the expression”. For the same compound, in assay [2], the “E-screen Maximum induction (%)” value is recorded as “NDd (The maximum relative proliferation effect was < 7%)” and the “Proliferation / estrogenic effect” value is “negative results”. In assay [4], the “MVLN assay Maximum induction (%)” value is reported as “NDe (The maximum relative luciferase activity was < 5%)” and the “Luciferase induction / estrogenic effect in the MVLN assay (in words)” value (“Luciferase induction / estrogenic effect” below) is reported as “negative results”. The “TFF1 mRNA expression, fold up-regulation” value in assay [3] is “did not affect the expression”.

Turning to `FC(F)(F)C(F)(F)C(F)(F)C(F)(F)C(F)(F)C(F)(F)C(F)(F)C(F)(F)Br` [PFOB, 1-bromoperfluorooctane, reference compound], the “EGR3 mRNA expression, fold up-regulation” value in assay [1] was “did not affect the expression”. Also, in assay [2], the “E-screen Maximum induction (%)” value is listed as “NDd (The maximum relative proliferation effect was < 7%)” and the “Proliferation / estrogenic effect” value was “negative results”. Also, in assay [4], the “MVLN assay Maximum induction (%)” value is “NDe (The maximum relative luciferase activity was < 5%)” and the “Luciferase induction / estrogenic effect” value is “negative results”. Further, in assay [3], the “TFF1 mRNA expression, fold up-regulation” value is given as “did not affect the expression”.

Regarding `FC(F)C(F)(F)C(F)(F)C(F)(F)C(F)(F)C(F)(F)C(F)(F)C(F)(F)F` [PFOC, 1H-perfluorooctane, reference compound], in assay [1], the “EGR3 mRNA expression, fold up-regulation” value is “did not affect the expression”. Besides, in assay [2], the “E-screen Maximum induction (%)” value is listed as “NDd (The maximum relative proliferation effect was < 7%)” and the “Proliferation / estrogenic effect” value is given as “negative results”. Further, in assay [4], the “MVLN assay Maximum induction (%)” value is given as “NDe (The maximum relative luciferase activity was < 5%)” and the “Luciferase induction / estrogenic effect” value is “negative results”. Moreover, the “TFF1 mRNA expression, fold up-regulation” value in assay [3] is “did not affect the expression”.

In the case of `FC(F)(F)C(F)(F)C(F)(F)C(F)(F)I` [PFBI, 1-iodoperfluorobutane], the “EGR3 mRNA expression, fold up-regulation” value in assay [1] is recorded as “did not affect the expression”. Besides, in assay [2], the “E-screen Maximum induction (%)” value was “NDd (The maximum relative proliferation effect was < 7%)” and the “Proliferation / estrogenic effect” value is given as “did not show proliferation effects”. In assay [3], the “TFF1 mRNA expression, fold up-regulation” value is recorded as “did not affect the expression”.

As for `FC(F)(F)C(F)(F)C(F)(F)C(F)(F)C(F)(F)C(F)(F)I` [PFHxI, 1-iodoperfluorohexane], the “EGR3 mRNA expression, fold up-regulation” value in assay [1] worked out at 2.4 fold. Moreover, the EC50 in assay [2] (Homo sapiens, MCF7/BUS, 144 h, read-out: E-screen EC50) is 0.63 µM. For the same compound, in assay [2], the “E-screen Maximum induction (%)” value was found to be 99% and the “Proliferation / estrogenic effect” value is “produced full concentration–response curves”. For the same compound, the “E-screen Relative potency” value in assay [2] (ratio of EC50 of E2 to that of test compound) is given as 4.9 × 10^–6. In addition, in assay [4], the EC50 amounted to 26.7 µM, the “MVLN assay Maximum induction (%)” value turned out to be 47% and the “Luciferase induction / estrogenic effect” value was “induced luciferase activity in a dose-related manner”. The “Luciferase activity on coexposure with OHT” value in assay [4] (OHT 10 nM coexposed with 100 μM PFHxI, 100 μM PFOI, 100 μM PFBDI, 20 μM PFHxDI or 40 μM PFODI) was “marked reduction of luciferase activity”. The “MVLN assay Relative potency” value in assay [4] (footnote: ratio of EC50 of E2 to that of test compound, text: based on EC20) is reported as 0.29 × 10^–6. Further, the “MVLN assay EC20” value in assay [4] (luciferase activity, 2 days, from Hill slope and EC50) is 14.1 µM.

The EC50 is the concentration at which the effect is half-maximal.
